Measured values reported in patent US12378279B2, “Nicotinamide riboside hydrogen malate crystal, and its preparation method and application” (priority 2024, dated 2025).

Tests used:
[1] = Stability comparison: HPLC purity of samples in covered, sealed glass dishes in a constant-temperature-humidity chamber; details: 25° C., relative humidity 40%; for Decomposition rate over 6 days: (initial sample purity−sample purity)/initial sample purity×100%; for Purity: sealed glass dish
Method: The nicotinamide riboside hydrogen malate crystal obtained herein and the commercially-available nicotinamide riboside hydrogen malate crystal samples (A and B) were each divided into seven portions and separately placed into seven glass sample dishes, with 1 g of sample in each dish. The dishes were covered and sealed. All the samples were stored in a constant-temperature-humidity chamber at 25° C. and a relative humidity of 40%. The purity of the samples was tested daily. The decomposition rate was calculated using the following formula: decomposition rate=(initial sample purity−sample purity)/initial sample purity×100%.
Product purity analysis was performed through the following steps. One packet of the sample was dissolved in a 5 mL or 10 mL volumetric flask to prepare a 5 mL or 10 mL sample solution. Then, the purity of the sample was determined using high performance liquid chromatography (HPLC).
The high performance liquid chromatography (HPLC) method parameters were as follows: isocratic elution with 5% water (0.1% formic acid) and 95% methanol (0.1% formic acid) as the mobile phase, a wavelength of 254 nm, a temperature of 23.0° C. with 54% relative humidity, samples dissolved in methanol, an ODS-2 column (4.6×250 mm, […]) with pressure maintained at 12-13 MPa, a flow rate of 1.0 mL/min, an injection volume of […] and a run time greater than or equal to 15 min.

[2] = Color change and hygroscopicity of products exposed to air (Karl Fischer moisture); assay type: physicochemical; details: RH 40%
Method: The nicotinamide riboside hydrogen malate crystal products obtained from the above Examples and Comparative Examples were respectively exposed to air (air humidity and temperature were controlled). […] Moisture (Karl Fischer) determination method was performed using an MC-2000 automatic micro-moisture analyzer from Mince Instruments (Xiamen) Co., Ltd., and a karl fischer reagent from Nanjing Chemical Reagent Co., Ltd.

[3] = at 112-200° C., heating rate 10° C./min, nitrogen
Method: Thermogravimetric analysis (TGA) was performed using a TGA55 instrument from TA Instruments, USA, with a temperature range of 14.8-300° C., a heating rate of 10° C./min and a nitrogen flow rate of 40 mL/min.

[4] = Stability comparison: HPLC purity of samples sealed in polyethylene bags in a constant-temperature-humidity chamber; assay type: physicochemical; details: 25° C., RH 40%, sealed PE bag; for Decomposition rate on day 6: (initial sample purity−sample purity)/initial sample purity×100%
Method: The nicotinamide riboside hydrogen malate crystal obtained from the above Examples and Comparative Examples products was sealed in polyethylene (PE) bags, with 1 gram per bag. […] Samples were tested at regular intervals. Sample solution was prepared through the following steps. […] Then, the sample solution was filtered through a membrane, and the sample purity was determined using high performance liquid chromatography (HPLC).

With `NC(=O)c1ccc[n+]([C@@H]2O[C@H](CO)[C@@H](O)[C@H]2O)c1.O=C(O)CC(O)C(=O)[O-]` [Commercially-available product A, nicotinamide riboside hydrogen malate] the “Decomposition rate over 6 days” value [1] was 8.37%, the Purity ([1]; day 0) was 99.900% and the Purity ([1]; day 1) was 98.355%. The Purity ([1]; day 2) was 96.843%, the Purity ([1]; day 3) was 95.752% and the Purity ([1]; day 4) was 94.185%. It also gave a Purity ([1]; day 5) of 93.250% and a Purity ([1]; day 6) of 91.538%.

For `NC(=O)c1ccc[n+]([C@@H]2O[C@H](CO)[C@@H](O)[C@H]2O)c1.O=C(O)CC(O)C(=O)[O-]` [Commercially-available product B, nicotinamide riboside hydrogen malate], the “Decomposition rate over 6 days” value [1] was 4.77%, the Purity ([1]; day 0) was 99.750% and the Purity ([1]; day 1) was 98.843%. For the same compound, the Purity ([1]; day 2) was 98.310%, the Purity ([1]; day 3) was 97.982% and the Purity ([1]; day 4) was 96.530%. It also gave a Purity ([1]; day 5) of 95.020% and a Purity ([1]; day 6) of 94.989%.

For `NC(=O)c1ccc[n+]([C@@H]2O[C@H](CO)[C@@H](O)[C@H]2O)c1.O=C(O)CC(O)C(=O)[O-]` [Example 1, nicotinamide riboside hydrogen malate], the Product moisture ([2]; Day 0, 25° C., listed as EXAMPLE 1) was 0.30%, the Product moisture ([2]; Day 6, 25° C., listed as EXAMPLE 1) was 2% and the “Weight loss (TGA)” value [3] was 1-33%. The “Purity on day 6” value ([4]; listed as EXAMPLE 1) was 99.65%, the Initial purity ([4]; listed as EXAMPLE 1) was 99.67% and the “Decomposition rate on day 6” value ([4]; listed as EXAMPLE 1) was 0.72%. For the same compound, the “Stability compared to the commercially-available products” value ([1]; 6 days) was “better stability”, the “Decomposition rate over 6 days” value ([1]; listed as Product of Example 1) was 0.759% and the Purity ([1]; day 0, listed as Product of Example 1) was 99.576%. The Purity ([1]; day 1, listed as Product of Example 1) was 99.553%, the Purity ([1]; day 2, listed as Product of Example 1) was 99.494% and the Purity ([1]; day 3, listed as Product of Example 1) was 99.510%. For the same compound, the Purity ([1]; day 4, listed as Product of Example 1) was 99.518%, the Purity ([1]; day 5, listed as Product of Example 1) was 99.499% and the Purity ([1]; day 6, listed as Product of Example 1) was 98.820%.

In the case of `NC(=O)c1ccc[n+]([C@@H]2O[C@H](CO)[C@@H](O)[C@H]2O)c1.O=C(O)CC(O)C(=O)[O-]` [Example 2, nicotinamide riboside hydrogen malate], the Product moisture ([2]; Day 0, 25° C., listed as EXAMPLE 2) is reported as 0.28%, the Product moisture ([2]; Day 6, 25° C., listed as EXAMPLE 2) is reported as 3.1% and the “Purity on day 6” value ([4]; listed as EXAMPLE 2) is reported as 98.97%. For the same compound, the Initial purity ([4]; listed as EXAMPLE 2) was 99.72% and the “Decomposition rate on day 6” value ([4]; listed as EXAMPLE 2) was 0.75%.

With `NC(=O)c1ccc[n+]([C@@H]2O[C@H](CO)[C@@H](O)[C@H]2O)c1.O=C(O)CC(O)C(=O)[O-]` [Example 3, nicotinamide riboside hydrogen malate] the Product appearance ([2]; Day 0, 25° C.) was “White”, the Product moisture ([2]; Day 0, 25° C., listed as EXAMPLE 3) was 0.30% and the Product appearance ([2]; Day 6, 25° C.) was “White”. For the same compound, the Product moisture ([2]; Day 6, 25° C., listed as EXAMPLE 3) was 2.4%, the “Purity on day 6” value ([4]; listed as EXAMPLE 3) was 98.95% and the Initial purity ([4]; listed as EXAMPLE 3) was 99.69%. For the same compound, the “Decomposition rate on day 6” value ([4]; listed as EXAMPLE 3) was 0.74%.

For `NC(=O)c1ccc[n+]([C@@H]2O[C@H](CO)[C@@H](O)[C@H]2O)c1.O=C(O)CC(O)C(=O)[O-]` [Example 4, nicotinamide riboside hydrogen malate], the Product moisture ([2]; Day 0, 25° C., listed as EXAMPLE 4) was 0.22%, the Product moisture ([2]; Day 6, 25° C., listed as EXAMPLE 4) was 1.8% and the “Purity on day 6” value ([4]; listed as EXAMPLE 4) was 98.79%. The Initial purity ([4]; listed as EXAMPLE 4) was 99.51% and the “Decomposition rate on day 6” value ([4]; listed as EXAMPLE 4) was 0.72%.

In the case of `NC(=O)c1ccc[n+]([C@@H]2O[C@H](CO)[C@@H](O)[C@H]2O)c1.O=C(O)CC(O)C(=O)[O-]` [Example 5, nicotinamide riboside hydrogen malate], the Product moisture ([2]; Day 0, 25° C., listed as EXAMPLE 5) is reported as 0.31%, the Product moisture ([2]; Day 6, 25° C., listed as EXAMPLE 5) is reported as 2.9% and the “Purity on day 6” value ([4]; listed as EXAMPLE 5) is reported as 99.15%. For the same compound, the Initial purity ([4]; listed as EXAMPLE 5) was 99.78% and the “Decomposition rate on day 6” value ([4]; listed as EXAMPLE 5) was 0.63%.

In the case of `NC(=O)c1ccc[n+]([C@@H]2O[C@H](CO)[C@@H](O)[C@H]2O)c1.O=C(O)CC(O)C(=O)[O-]` [Example 6, nicotinamide riboside hydrogen malate], the Product moisture ([2]; Day 0, 25° C., listed as EXAMPLE 6) is reported as 0.29%, the Product moisture ([2]; Day 6, 25° C., listed as EXAMPLE 6) is reported as 3.2% and the “Purity on day 6” value ([4]; listed as EXAMPLE 6) is reported as 99.11%. For the same compound, the Initial purity ([4]; listed as EXAMPLE 6) was 99.81% and the “Decomposition rate on day 6” value ([4]; listed as EXAMPLE 6) was 0.70%.
